Positions count from the first letter of the chain named. Where two headings read alike, the source gives them in different places.
Columns and labels:
GLUT5 [1] = target: T1, GLUT5 (Homo sapiens, UniProt P22732, S72Y); test: inhibition of […]-fructose uptake in hxt0 yeast cells expressing GLUT5; assay type: cell-based
T1 construct: gene SLC2A5; GLUT5tr (truncated for the first seven amino acids at the N-terminus)
T1 sequence (P22732 8-501 S72Y): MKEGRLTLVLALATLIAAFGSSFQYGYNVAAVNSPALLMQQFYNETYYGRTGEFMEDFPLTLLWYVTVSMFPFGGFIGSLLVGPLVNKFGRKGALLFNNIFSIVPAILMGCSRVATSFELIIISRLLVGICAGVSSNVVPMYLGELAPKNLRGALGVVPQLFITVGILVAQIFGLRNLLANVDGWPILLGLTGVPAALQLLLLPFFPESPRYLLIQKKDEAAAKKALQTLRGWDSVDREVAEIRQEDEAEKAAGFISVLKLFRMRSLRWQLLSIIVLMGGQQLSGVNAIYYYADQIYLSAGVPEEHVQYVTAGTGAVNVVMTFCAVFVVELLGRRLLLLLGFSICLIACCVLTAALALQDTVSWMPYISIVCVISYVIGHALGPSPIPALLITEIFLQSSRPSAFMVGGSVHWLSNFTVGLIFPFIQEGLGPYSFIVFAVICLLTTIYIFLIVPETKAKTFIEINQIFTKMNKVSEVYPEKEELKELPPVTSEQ

GLUT5 [2] = target: T2, GLUT5 (Homo sapiens, UniProt P22732, S76I); test: as above; assay type: cell-based
T2 construct: gene SLC2A5; GLUT5tr (truncated for the first seven amino acids at the N-terminus)
T2 sequence (P22732 8-501 S76I): T1 sequence (P22732 8-501 S72Y) with Y65S, S69I

IC50 (GLUT5 [1]; read-out: IC50 of MSNBA)	IC50 (GLUT5 [2]; read-out: IC50 of MSNBA)	SMILES	IC50 (GLUT5 [1]; read-out: IC50 of ECG)	IC50 (GLUT5 [2]; read-out: IC50 of ECG)
		O=C(O[C@@H]1Cc2c(O)cc(O)cc2O[C@@H]1c1ccc(O)c(O)c1)c1cc(O)c(O)c(O)c1 [ECG, (−)-epicatechin-gallate]	180 ± 11 µM	140 ± 11 µM
26.6 ± 6.7 µM	6.3 ± 0.7 µM	CS(=O)(=O)c1ccc(Nc2ccc3c(c2)OCO3)c([N+](=O)[O-])c1 [MSNBA, N-[4-(methylsulfonyl)-2-nitrophenyl]-1,3-benzodioxol-5-amine]		
